Tested on: tps2Δ strains
Assay: Sensitivity towards antifungals, growth curves in liquid medium in microtiter wells (bioscreen C)
Assay type: cell-based, Saccharomyces cerevisiae
Settings: 10^-6 M ketoconazole, 33°C, cells pre-grown to stationary phase, OD 600 nm, after 24 hours
Method: Sensitivity towards the antifungals itraconazole and ketoconazole was tested in microtiter wells using a bioscreen C apparatus (Life sciences, Labsystems) and on solid culture media.
Yeast cells were pre-grown in YPglucose medium till stationary phase. The cells were diluted to a initial optical density of 0.05 OD and 300 µl of cell suspension was added to each well of a microtiter plate. Three µl of the correct stock solution of the compound, dissolved in DMSO, were added to each well. For the control reactions, only DMSO was added. The microtiter plate was placed in the bioscreen C apparatus and were incubated at 33°C or 37°C, with medium intensity shaking (30 seconds shaking per minute). The optical density at 600 nm was measured every 30 min.
The effect of the addition of 10^-7 M Itraconazole and 10^-6 Ketoconazole on the growth curve of prototrophic tps2Δ strain PVD32 and wild type strain PVD23 at 33°C is shown in Figures 3 and 4 respectively.
The effect of different concentrations of itraconazole on the growth at 33°C of the diploid wild type strain (PVD190) and the diploid heterozygous tps2Δ strain PVD191 was tested and the results are presented in Figure 5.

CC(=O)N1CCN(c2ccc(OCC3COC(Cn4ccnc4)(c4ccc(Cl)cc4Cl)O3)cc2)CC1 (stereo not shown) [ketoconazole] was tested, and the effect on growth was “no detectable growth”.
